Experimental data as given in patent US20250353828A1, “SUBSTITUTED BIARYL ENDOCHIN-LIKE QUINOLONES WITH ENHANCED ANTIPARASITIC ACTIVITY” (Oregon Health & Science University, priority 2022, published 2025).

Columns and labels:
[1] = test system: P. falciparum Tm90-C2B (atovaquone-resistant clinical isolate); experiment: In vitro antiplasmodial activity, SYBR Green I assay, Tm90-C2B; type: cell-based; conditions: Plasmodium falciparum; Tm90-C2B strain; 72 h incubation; averages of quadruplicate with (95% confidence intervals); read-out: P. falciparum IC50 values, nM Tm90-C2B
Protocol: (§1) Rationale for Synthesis of a 3-Biaryl Version of ELQ-300. […] All of this information is stored in a database with information relating to chemical structure, physical chemical properties, cross resistance patterns, mammalian cell cytotoxicity, enzyme inhibitor profiles, and synthesis details. […] We employed the SyBr Green assay and the plates were incubated for 72 hours before harvesting^18, 19. […] Stock solutions were freshly prepared in DMSO.
(§2) Plasmodium falciparum Culture. Laboratory strains of P. falciparum were cultured in human erythrocytes by standard methods. The parasites were grown in culture medium with fresh human erythrocytes maintained at 2% hematocrit at 37° C. in low-oxygen conditions (5% O2, 5% CO2, […] balance N2). […] Cultures were maintained at less than 10% parasitemia by transfer of infected cells to fresh erythrocytes and culture medium every 3 or 4 days.
(§3) In vitro drug susceptibility assays. SYBR green I assay. In vitro antiplasmodial activity was assessed using a published SYBR Green I fluorescence-based method. The drugs were added to 96-well plates using 2-fold serial dilutions in complete medium. […] Asynchronous P. falciparum parasites were diluted with uninfected erythrocytes and added to the wells to give a final culture volume of 100 μl at 2% hematocrit and 0.2% parasitemia. […] The parasites were then lysed by adding 100 μl of SYBR green I lysis buffer containing 0.2 μl/ml SYBR green I dye (10,000×) in 20 mM Tris (pH 7.5), 5 mM EDTA, 0.008% (wt/vol) saponin, and 0.08% (vol/vol) Triton X-100. The plates were incubated at room temperature for an hour in the dark. […] If the IC50 value fell outside of the initial tested range then the range was adjusted up or down and the assay was repeated.

[2] = test system: P. falciparum cytochrome bc1 complex; experiment: biochemical; conditions: based on enzyme inhibitory activity
From the text: Isolation of Plasmodium falciparum Mitochondria and Ubiquinol-Cytochrome c Oxidoreductase Assay.

[3] = test system: P. falciparum D6 strain (drug sensitive); experiment: In vitro antiplasmodial activity, SYBR Green I assay, D6 strain; type: cell-based, Plasmodium falciparum; conditions: Plasmodium falciparum; D6 strain; 72 h incubation; averages of quadruplicate with (95% confidence intervals); read-out: P. falciparum IC50 values, nM D6
Protocol: as §1, §2, §3

[4] = test system: P. yoelii blood stage infection in mice; experiment: In vivo single-dose cure against murine malaria; conditions: lowest single dose that cures all 4 mice; P. yoelii, dose on Day 1; prodrugs dosed on molar equivalency to parent drug
Protocol: Animals that remained aparasitemic out to […] were scored as cures.
In Vivo Single-Dose Efficacy against Murine Malaria. The effectiveness of selected 3-biarylELQs and prodrugs was assessed vs. the blood stage infection for single dose cures. Mice are infected iv with 3.5×10^4 P. yoelii infected RBCs as described for the 4-day test above. Drug administration occurred on the day after inoculation (Day 1). Test agents were dissolved in PEG-400 and administered ig once. On the 5th day blood films were prepared and % parasitemia was assessed. Animals remaining parasite-free for 30 days after drug administration were considered cured. The initial dosing range was: 0.5, 1, 2.5, 5, 10 mg/kg, including a control. Experiments were performed with 4 mice per group to ensure statistical accuracy. The reported parameter for these studies is the lowest single dose that provides a cure to all 4 animals in the group.

[5] = biological target: T1, human liver cytochrome bc1 complex (Homo sapiens, UniProt P00156); conditions: data taken from Nilsen et al., 2013 (a) or Frueh et al., 2017 (b); cited from earlier work
T1 construct: human host cytochrome bc1 complex isolated from human liver tissue; from tissue; host or cells: human liver tissue

[6] = test system: P. falciparum Dd2 strain (multidrug resistant); experiment: microbe, parasite or virus in culture; type: cell-based, Plasmodium falciparum; conditions: read-out: P. falciparum IC50 values, nM Dd2; Dd2 strain; 72 h incubation; averages of quadruplicate with (95% confidence intervals)
Protocol: as §1, §2, §3

[7] = HepG2 cytotoxicity, TiterGlo ATP luminescence, galactose medium; type: cell-based, human; conditions: human
Protocol: […]. Of course, enhanced potency is desirable only if unaccompanied by enhanced toxicity. […] […]. The incubation period for these experiments was 48 hours.

[8] = test system: P. yoelii (Kenya Strain) blood stage infection in mice; experiment: 4-day Peters test against murine malaria; type: in vivo; conditions: P. yoelii in mice, oral gavage in PEG400 on Days 1-4; prodrugs dosed on molar equivalency to parent drug
Protocol: On Day 5 a drop of blood was taken from the tail and a blood smear was prepared, fixed with methanol, and stained with Giemsa. The operator then examined the stained smear microscopically to determine percent parasitemia. Dosages of 0.0025, 0.005, 0.01, 0.03, 0.1, 0.3, 1.0 and 10 mg/kg/day were used for the experiment. […] In this model animals were inoculated exactly as for the 4-day test on Day 0 however drug was administered only on Day 1 while the operator made smears on Day 5 and again weekly thereafter for animals that remained aparasitemic. Animals that remained aparasitemic out to […] were scored as cures.
In Vivo Efficacy against Murine Malaria. The P. yoelii 4-day test monitors suppression of patent infection in female CF1 mice. The test began with the inoculation (iv) of parasitized erythrocytes (3.5×10^4/P. yoelli) (from a donor animal) on the first day of the experiment (D0). […] Initially the 3-biaryl-ELQs were tested at doses of 0.0025, 0.005, 0.01, 0.03, 0.1, 0.3, 1.0 and 10 mg/kg/day, including a vehicle-only (PEG400) control. After completion of drug treatment, a blood sample was collected (by pricking the tail vein) for determination of parasite burden beginning on the day after the final dose (D5). Percent parasitemia is assessed by direct microscopic analysis of Giemsa-stained blood smears. […] Animals with observable parasitemia following the experiment were euthanized; animals cleared of parasites from the bloodstream were observed daily with assessment of parasitemia performed weekly until day 30, at which point the animal(s) were scored as cured of infection. […] Non-linear regression analysis is used for objective determination of ED50's and ED90's from the accumulated data as well as the Non-Recrudescence Dose (NRD). The 4-day test protocol was reviewed and approved by the local IACUC board at the Portland VA Medical Center. Experiments were performed with 4 mice per group to ensure statistical accuracy.

[9] = test system: P. falciparum D1 clone (ELQ-300 resistant); experiment: microbe, parasite or virus in culture; type: cell-based; conditions: Plasmodium falciparum, 72 h, read-out: P. falciparum IC50 values, nM D1
[10] = biological target: T2, P. falciparum cytochrome bc1 complex (Plasmodium falciparum, UniProt Q02768); conditions: data taken from Nilsen et al., 2013 (a) or Frueh et al., 2017 (b); cited from earlier work
T2 construct: endogenous in cells
T2 sequence (Q02768 1-376): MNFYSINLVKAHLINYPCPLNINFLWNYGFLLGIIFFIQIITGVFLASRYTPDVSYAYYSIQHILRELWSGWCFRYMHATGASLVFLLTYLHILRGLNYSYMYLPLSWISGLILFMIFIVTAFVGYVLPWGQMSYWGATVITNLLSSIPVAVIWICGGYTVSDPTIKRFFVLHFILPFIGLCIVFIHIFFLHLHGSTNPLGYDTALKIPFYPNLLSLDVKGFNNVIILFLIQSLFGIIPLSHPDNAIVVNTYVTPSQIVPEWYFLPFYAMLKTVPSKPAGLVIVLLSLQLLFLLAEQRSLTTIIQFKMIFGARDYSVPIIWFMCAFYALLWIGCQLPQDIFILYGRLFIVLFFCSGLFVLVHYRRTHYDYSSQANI

With `COc1cc2[nH]c(C)c(-c3ccc(Oc4ccc(OC(F)(F)F)cc4)cc3)c(=O)c2cc1Cl` [ELQ-300, reference compound] the IC50 [1] was 2.5 nM, the “Selectivity Index Human/Pf cyt. bc1” value [2] was ≥18,000 and the IC50 [3] was 3.3 nM. For the same molecule, the Single dose cure [4] was >25 mg/kg/day, the IC50 [5] was > 10000 nM and the IC50 [6] was 4.2 nM. For the same molecule, the EC50 at 48 h [7] was > 10000 nM, the “4-day Peters Test Results ED90” value [8] was 0.06 mg/kg/day and the “4-day Peters Test Results NRD (non-recrudescence dose)” value [8] was 1.0 mg/kg/day. The IC50 [9] was 168 nM and the IC50 [10] was 0.56 nM.
